In series [1] the test system is SARS-COV-2 strain NIV 2020-770. Nature of the series: microbe, parasite or virus in culture. In kind it is cell-based. The settings on record: for IC50: Severe acute respiratory syndrome coronavirus 2, 72 h; for SI (selectivity index): against SARS-CoV-2.
Series [2] in a line: Cell cytotoxicity determination (MTT) in Vero CCL-81 cells. In kind it is cell-based. The settings on record: monkey. On the procedure: Cell Cytotoxicity determination: 100 μL Vero CCL-81 cells were seeded on to 96 well plate at a density of 3×10^6 cells/mL. The plates were incubated for 24 hrs at 37° C. with 5% CO2. After overnight incubation the spent medium was discarded and 100 μL of different concentrations of each drugs prepared earlier from the stock was added to the respective wells in quadruplets. The plates were incubated for 72 hr at 37° C. in 5% CO2. After the incubation, the medium containing drug was discarded. The cell monolayer was washed by adding 100 μL of 1×PBS. 100 μL of plain MEM and 50 μl of MTT (2 mg/ml concentration) was added to each well. Followed by incubation for 4 hrs at 37° C. in 5% CO2. At the end of incubation, the cell supernatant was discarded and 200 μl of DMSO was added to each well to dissolve the formazan crystals. 25 μL of Sorensen's glycine buffer was added immediately to each well. The plates were incubated in dark for 30 min at room temperature. The OD was measured at 570 nm using ELISA plate reader. CC50 value was plotted using Prism Pad application.

Series [3] can be described thus: In vitro toxicity in WI-38 cells (MTS-PMS kit). In kind it is cell-based. The settings on record: human, WI-38 human lung fibroblast cells, read-out: IC50 (cytotoxicity). The text has this: (§1) The toxicity of ((((((R)-1-(6-amino-9H-purin-9-yl) propan-2-yl) oxy) methyl) (phenoxy) phosphoryl)oxy)methyl pivalate fumarate and Metabolite of compound of formula 1 in different human lung cells viz, WI-38 (human lung fibroblast cells) and Calu-3 (human lung bronchial cells) by using the MTS-PMS kit investigated.
(§2) MTS-PMS kit details (CellTiter 96@ Aqueous kit)
This is a colorimetric method for determining the number of viable cell measures viable cells in proliferation, cytotoxicity or chemosensitivity assays. The assay is composed of solutions of a novel tetrazolium compound [3-(4,5-dimethylthiazol-2-yl)-5-(3-carboxymethoxyphenyl)-2-(4-sulfophenyl)-2H-tetrazolium, inner salt; MTS] and an electron coupling reagent (phenazine methosulfate) PMS. MTS is bioreduced by cells into a formazan product that is soluble in tissue culture medium. The absorbance of the formazan product at 490 nm can be measured directly from 96-well assay plates without additional processing. The conversion of MTS into the aqueous soluble formazan product is accomplished by dehydrogenase enzymes found in metabolically active cells. The quantity of formazan product as measured by the amount of 490 nm absorbance is directly proportional to the number of living cells in culture.
Respective cells were harvested from exponential phase cultures, […] on the cell line's growth rate. After a 24 h recovery period to allow the cells to resume exponential growth. TPF or Metabolite of compound of formula 1 was applied at 6-8 concentrations in duplicate and treatment continued for different time points. After completion of incubation 20 μL/well MTS-PMS reagent was added to each well (MTS-PMS was prepared as follows: CellTiter 96@AQueous Assay Reagents MTS Solution and the PMS Solution should be thawed before use. Remove 2.0 ml of MTS Solution. Add […] of PMS Solution to the 2.0 ml of MTS Solution immediately). Following an incubation period of up to four hours, the plate was read to 490 nm. For calculations, the mean values of duplicate data were used. Sigmoidal concentration-response curves were fitted to the data points (T/C values) obtained for each cell line using 4 parameter non-linear curve fit.
Cells were harvested from exponential phase cultures, […] on the cell line's growth rate. After a 24 h recovery period to allow the cells to resume exponential growth. TPF or Metabolite of compound of formula 1 was applied at 6-8 concentrations in duplicate and treatment continued for different time points. For Calu-3 cells the treatment was the treatment was for 72 hrs while WI-38 cells were treated for 48 and 96 hrs. After the treatment of cells, 20 μL/well MTS-PMS reagent was added. Following an incubation period of up to four hours, the plate was read to 490. […]

Series [4] is described as follows: In vitro toxicity in Calu-3 cells (MTS-PMS kit). It is filed as cell-based. The settings on record: human, Calu-3 human lung bronchial cells, read-out: IC50 (cytotoxicity).
Description: as §1, §2
This is a colorimetric method for determining the number of viable cell measures viable cells in proliferation, cytotoxicity or chemosensitivity assays. […] The absorbance of the formazan product at 490 nm can be measured directly from 96-well assay plates without additional processing. […] The quantity of formazan product as measured by the amount of 490 nm absorbance is directly proportional to the number of living cells in culture.
Respective cells were harvested from exponential phase cultures, […] on the cell line's growth rate. […] Following an incubation period of up to four hours, the plate was read to 490 nm. […]
Cells were harvested from exponential phase cultures, […] on the cell line's growth rate. […] Following an incubation period of up to four hours, the plate was read to 490. […]
For orientation: Tetrazolium assays rely on reduction of a dye to a coloured formazan, in cell work by metabolically active cells.

Series [5] deals with A549 (human lung alveolar cells) monolayer.
A further series is described as follows: in vitro. The following applies: human.

This is an account of results in patent publication US20240009214A1 (priority 2020, published 2024).

A word on the IC50: it is the point on the concentration scale where inhibition reaches its midpoint. By CC50 is commonly meant the concentration giving 50% cytotoxicity. As a reminder, the Papp A→B is how fast a substance crosses the layer from the apical side.

Counter-ions that a name gives are not always drawn.

Compound `C[C@H](Cn1cnc2c(N)ncnc21)OC[P@@](=O)(OCOC(=O)C(C)(C)C)Oc1ccccc1` [((((((R)-1-(6-amino-9H-purin-9-yl)propan-2-yl)oxy)methyl) (phenoxy)phosphoryl)oxy)methyl pivalate fumarate] returned an IC50 in series [1] of under 1 µM. For the same compound, the “SI (selectivity index)” value in series [1] (window between cytotoxicity (CC50) and antiviral activity (IC50), fumarate) is over 100; in series [1] (window between cytotoxicity (CC50) and antiviral activity (IC50); fumarate)) it was over 100. Besides, the half-maximal cytotoxic concentration (CC50) at 72 h in series [2] was over 100 µM. In addition, the IC50 at 48 h in series [3] is over 100 µM. For the same compound, in series [3], the IC50 at 96 h is over 100 µM. Besides, the IC50 at 72 h in series [4] was over 100 µM. Moreover, the permeability classification entry in series [5] is on record as “highly permeable”. The compound also displayed a P-app in series [5] (apical to basal) of over 20 ×10⁻⁶ cm/s.
As for `C[C@H](Cn1cnc2c(N)ncnc21)OCP(=O)(O)Oc1ccccc1` [Compound of formula 2, tenphenol], the IC50 in series [1] was about 12 µM. The “SI (selectivity index)” value in series [1] (window between cytotoxicity (CC50) and antiviral activity (IC50)) is given as over 8.33; in series [1] (window between cytotoxicity (CC50) and antiviral activity (IC50), listed as compound of formula 2), 8.33. Moreover, the CC50 at 72 h in series [2] is over 100 µM. Besides, in series [3], the IC50 at 48 h is over 100 µM. Also, the IC50 at 96 h in series [3] is over 100 µM. Further, the IC50 at 72 h in series [4] was over 100 µM. Besides, in series [5], the permeability classification entry is “moderately permeable”. In addition, the Papp A→B in “in vitro” is under 20 ×10⁻⁶ cm/s.
